The results in this text go back to patent publication US20220241229A1, “Methods and Compositions for Altering Senescence Associated Secretory Phenotype” (BUCK INSTITUTE FOR RESEARCH ON AGING, priority 2019, published 2022).

Data set [1] concerns C57BL6/J mice. The settings on record: treated group vs. control. Here is the method: Metabolism was measured applying indirect calorimetry. Promethion metabolic cage system-Sable Systems International was used. The system is equipped with GA-3 small mammal gas analyzers for measurements of O2 (consumption) and CO2 (production). Energy expenditure, food intake, water consumption, body weight, physical activity and volunteer exercise were simultaneously recorded over 4 consecutive days (96 hours). Mice were housed individually in metabolic cages and accustomed to their environment a day before the start of recording. Data were analyzed using Sable System Expedata-P Data Analysis Software. Subsequently, CalR software, a free web tool was used for analysis of experiments using indirect calorimetry, to analyze the raw data, generate some plots and run statistical analysis.

For data set [2], the system named is C57BL6/J mice. Conditions: for Incidence and severity of aging phenotypes / morbidity (total frailty score): female and male, Cohort-1, 2% w/w diet from 18 months; for Age-related changes in female coat color / hair discoloration: female mice; for Severity of individual frailty phenotypes: grimace, poor coat condition, gait disorder. From the text:
For the subjective properties of the assessments, all measurements were completely blinded. These assessments indicate age-associated deterioration of health and include evaluation of the animal musculoskeletal system, the vestibulocochlear/auditory systems, the ocular and nasal systems, the digestive system, the urogenital system, the respiratory system, signs of discomfort, body weight and body surface temperature. 0 is assigned if no sign of frailty is observed and the animal is healthy for that phenotype. A moderate phenotype and a severe phenotype is scored 0.5 and 1 respectively. Loss of temperature and weight were scored using standard deviation for the study (Table 2). All the phenotypes were scored as described before by Whitehead, J. C., et al., except for temperature and weight. Temperature and weights scoring: Briefly, for weight and temperature, the new scaling scores were used; Average and standard deviations (STDEV) were calculated sex specifically using our own baseline data sets (data collected before the start of the treatment mice at 18th month age). A decrease in temperature or weight (FIG. 3B, and FIG. 3D) within one STDEV is scored as a (0), a decrease bigger than one STDEV but smaller than 2 STDEV will be scored as a (0.5) and any decrease more than 2 STDEV is scored as a (1).
(§1) Python Software was used to extract all the health span data and create files compatible with R software for analysis. Data were analyzed using R, GraphPad Prism 7 and OASIS 2 software. Log-rank (Mantel-Cox) tests were used to analyze Kaplan-Meier curves, and a fisher's exact test was performed for maximum lifespan analysis (at 90% survival). […] Two-way analysis of variance (ANOVA) with Bonferroni post hoc correction was used for analysis between morbidity curves. The area under curve (AUC) of […] graphs were measured baselining at 18 months of age. The changes in AUC were used to calculate the percent compression of morbidity.
In order to assess healthspan, measurements were applied that are based on a clinically relevant frailty index. The frailty index (FI) consists of 31 phenotypes that are indicators of age-associated health deterioration, with each phenotype scored on a 0, 0.5 or 1 scale, based on its severity. Body weight and surface temperature were collected and converted to the same scoring scales (Table 2). All scorings were conducted in a blinded manner.
The 31-metrics share many characteristics of the human frailty indices and has been reported to progress similarly with aging in mice and humans. Measurements were repeated approximately every eight weeks, providing us with eight and seven sets of data respectively for male and female groups. To establish a baseline clinical assessment, a dataset was collected right before the start of the treatment at 18th months (FIG. 4A-FIG. 4D).
Since the age for onset of age-related phenotypes can be quite heterogeneous in mammals, frailty datasets were plotted not only as a function of chronological time, but also in proportion to the lifespan of each mouse by binning scores within ten percentile (e.g. scores collected between 60% and 70% of the animals' lifespans were binned and plotted at 65%), (FIG. 9A-FIG. 9B). This further aligns assessments with respect to the biologic age of the animal.

Data set [3] deals with inflammatory cytokines and chemokines. Nature of the data set: Inflammatory cytokines and chemokines in serum (multiplex bead array). The format is in vivo, mice. Conditions: for Levels of 30 inflammatory cytokines and chemokines: aged female mice (29 month old) vs. aged control and young. The procedure: The samples were measured for soluble cytokines and chemokines in serum using multiplex bead array technology (MD31).

The test system of data set [4] is senescence-associated secretory phenotype (SASP) genes. Put plainly: qRT-PCR of SASP genes in irradiated IMR-90 fibroblasts. Conditions: 10 Gy ionizing radiation; 1 mM for 10 days. The format is cell-based.
Method: For damage-induced senescence, cells were irradiated with doses of either 0 or 10 Gy of ionizing radiation (IR). Cells were concurrently treated with PBS (control) or 1 mM AKG for 10 days, changing media every 2 days. All assays were performed 10 days post irradiation.
RNA quality and quantity were assessed using NanoDrop™ 1000 spectrophotometer measures (Thermo Scientific). Total cDNAs were synthesized from 500 ng of RNA using random primers and iScript RT reagents following the manufacturer's protocol Superscript II (Invitrogen, Carlsbad, USA). Gene expression was measured from cDNA using the Roche Universal Probe Library system (Indianapolis, Ind., USA). All values were normalized to beta-actin.
Data set [5] is described as follows: Body weight and food consumption. The format is in vivo, mice. From the text: (§2) The principle endpoint of health span and lifespan study was natural death or mice found dead at daily inspection or age at euthanasia (for mice deemed unlikely to survive for next 48 hr and are in enormous discomfort). The criteria for euthanasia were based on an independent assessment by a veterinarian, according to AAALAC guidelines and only where the condition of the animal was considered. Severe lethargy, rapid weight loss (over two weeks>20%), severe distended abdomen and body condition score with signs of pain (grimace), inability to move despite the stimuli, severe ulcer or bleeding tumor, sever temperature loss with abnormal breathing rate. Animal found dead or euthanized was necropsied for pathology score. No invasive measurements were performed on this population, n=180 animals (two cohorts of 90 animals). A sacrificed group were purchased at 14 months of age, baselined and grouped the following week. […] Animals were sacrificed and tissues were collected after 3 months of treatment. Food intake and body weight were measured on a biweekly and bimonthly basis for the duration of the study.
Metabolism was measured applying indirect calorimetry. Promethion metabolic cage system-Sable Systems International was used.

The test system of data set [6] is IMR-90 fibroblasts. Nature of the data set: Senescence formation in irradiated IMR-90 fibroblasts (SA-β-gal, EdU). The settings on record: 10 Gy ionizing radiation; 1 mM for 10 days. The format is cell-based.
Method: IMR-90 fetal lung fibroblasts were obtained from ATCC and were cultured at 37° C. in 3% O2 and 5% CO2. Dulbecco's modified Eagle's media (DMEM) supplemented with 10% fetal bovine serum and streptomycin/penicillin were used. Media was changed every 2 days during the experiment. For damage-induced senescence, cells were irradiated with doses of either 0 or 10 Gy of ionizing radiation (IR). Cells were concurrently treated with PBS (control) or 1 mM AKG for 10 days, changing media every 2 days. All assays were performed 10 days post irradiation.
Cells were stained for the senescence-associated 3-gal (SA-3-gal) marker as described. Non-senescent cells (having undergone fewer than 35 population doublings) were made quiescent by washing with PBS and incubating in DMEM containing 0.2% serum for 4 day. Cultures that had >80% SA-3-gal positive cells and ≤4% EdU positive cells were considered senescent.
Data set [7] concerns C57BL6/J mice. The settings on record: Cohort-1, 2% w/w AKG diet from 18 months of age.
Excerpt: as §2, §1

Where [8] appears, read: aged mice (29 months old) vs. young and aged control.

“Also recorded” adds a separate entry of the source. Where two headings read alike, the source gives them in different places.

On to `O=C([O-])CCC(=O)C(=O)[O-].[Ca+2]` [CaAKG, Calcium alpha-ketoglutarate], for which, in data set [1], the “Level of carbon dioxide production” value is given as “significantly lower”, the “Level of energy expenditure” value is reported as “significantly lower” and the “Level of oxygen consumption” value is reported as “significantly lower”. In addition, in data set [2], the “Incidence and severity of aging phenotypes / morbidity (total frailty score)” value was “decreases incidence and severity of different aging phenotypes and postpones morbidity”; the “Age-related changes in female coat color / hair discoloration” value is recorded as “protection from age-related changes in female coat color was particularly prominent”. For the same molecule, the “Total frailty score, health improvement vs. control” value in data set [2] (female, P<0.001, P<0.05) is “significant improvements after 9 months of treatment and again at 11 months post treatment”. Moreover, in data set [2] (females and males close to median life), the Gait result is given as “Gait improvement”. Besides, the “Severity of individual frailty phenotypes” value in data set [2] (females: piloerection, alopecia, loss of fur color, grip strength loss, rectal prolapse, body weight loss) is “significantly decreased”. For the same molecule, the “Total frailty score, health improvement vs. control” value in data set [2] (male, persisted until last measurement at 33 months of age, P<0.01, P<0.05) is listed as “significant health improvement after 11 months”. Besides, the “Severity of individual frailty phenotypes” value in data set [2] (males: grip strength loss, vestibular disturbance, loss of menace reflex, hearing loss, eye discharge, poor body condition, tail stiffening, abnormal breathing rate) is on record as “significantly decreased the severity of multiple aging phenotypes”. Further, the “Levels of 30 inflammatory cytokines and chemokines” value in data set [3] is recorded as “largely refractory to these changes”. Moreover, in data set [3] (setting [8]), the “Level of IL-3” value is “significant changes”.
With `O=C(O)CCC(=O)C(=O)O` [AKG, 2-oxopentanedioic acid], in data set [2] (both sexes, total frailty scores vs. percentage of lifespan), the “Compression of morbidity (proportion of life frail)” value is “compresses the morbidity risk into fewer days of life; also recorded: decreases the proportion of life in which the animal is frail”. Also, in data set [2], the “Incidence and severity of aging phenotypes / morbidity (total frailty score)” value is “extends healthspan and alleviates age-associated frailty”; the “Age-related changes in female coat color / hair discoloration” value was “prevents age-associated hair discoloration”. Also, the “Range of inflammatory cytokines (proinflammatory SASP)” value in data set [4] is recorded as “lowers the proinflammatory SASP”. In addition, the “Body weight preservation (age-related weight loss)” value in data set [5] (male mice, second cohort, P value<0.001) is “preserves body weight; also recorded: better body weight preservation”. Further, in data set [5] (measured for 3 consecutive days at 19, 23 and 28 months, AKG fed vs. control), the Food consumption entry is on record as “no significance change”. Also, the “Senescence formation / senescence growth arrest” value in data set [6] is “without preventing the senescence growth arrest”. In data set [7] (female), the “Age (days) at 100%” value is on record as 1116 days. The “Age (days) at 100%” value in data set [7] (male & female) came out at 1173 days. The “Age (days) at 100%” value in data set [7] (male) is reported as 1173 days. Moreover, in data set [3], the “Levels of 30 inflammatory cytokines and chemokines” value is “general trend of reduction”. Also, in data set [3] (setting [8]), the “Level of IL-3” value was “do not show an increase”, the “Level of IL-7” value is “do not show an increase”, the “Level of MIP-1β” value is reported as “do not show an increase” and the “Level of TNFα” value is listed as “do not show an increase”.
